{
  "source": "patent US10781229B2",
  "about": "“Tris- or neopentyl glycol-based amphiphiles and uses thereof” (Industry-University Cooperation Foundation Hanyang …, priority 2015, dated 2020)",
  "key": {"[1]": {"target": "T1, uric acid-xanthine/H+ symporter (UapA) (Emericella nidulans, UniProt Q07307, G411V)", "T1 construct": "GFP; made in house; host or cells: Saccharomyces cerevisiae FGY217", "T1 sequence (Q07307 12-574 G411V)": "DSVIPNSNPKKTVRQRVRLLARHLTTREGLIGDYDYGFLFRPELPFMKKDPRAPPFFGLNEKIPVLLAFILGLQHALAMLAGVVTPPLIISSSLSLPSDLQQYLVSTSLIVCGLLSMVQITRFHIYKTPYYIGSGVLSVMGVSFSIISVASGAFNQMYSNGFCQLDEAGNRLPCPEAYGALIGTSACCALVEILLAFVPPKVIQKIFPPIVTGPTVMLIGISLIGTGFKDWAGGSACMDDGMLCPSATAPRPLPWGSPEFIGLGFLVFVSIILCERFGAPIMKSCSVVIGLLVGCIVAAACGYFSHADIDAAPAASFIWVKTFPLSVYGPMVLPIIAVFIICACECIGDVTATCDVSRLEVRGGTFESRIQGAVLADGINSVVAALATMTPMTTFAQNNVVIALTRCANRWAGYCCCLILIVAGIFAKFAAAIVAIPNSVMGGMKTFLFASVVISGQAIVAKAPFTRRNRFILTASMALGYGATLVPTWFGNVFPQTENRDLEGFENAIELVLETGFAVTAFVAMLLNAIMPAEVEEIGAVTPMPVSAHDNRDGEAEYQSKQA", "experiment": "UapA structural stability by CPM assay", "design": "species or system Aspergillus nidulans", "conditions": "40° C.", "procedure": "Experiments to measure the structural stability of a uric acid-xanthine/H+ symporter (UapA) due to TDTs or NDTs in an aqueous solution were conducted. The structural stability of UapA was measured using CPM assay, and the concentrations of TDTs, NDTs, and DDM concentration were CMC+0.04% by weight.\nIn particular, UapA protein is a uric acid-xanthine/H+ symporter in Aspergillus nidulans). The stability of the protein was measured using N-[4-(7-Diethylamino-4-methyl-3-coumarinyl)phenyl]maleimide (CPM), as a sulfhydryl-specific fluorophore, by means of a fluorescence spectrophotometer. A free sulfhydryl group of a cysteine residue is present within the center of the protein but may be present near a solvent due to unfolding of the protein. CPM becomes fluorescent by reaction with free thiol and, accordingly, functions as a sensor of unfolding. […] The reaction was monitored at 40° C. for 120 minutes by means of a microplate spectrofluorometer. So as to calculate a ratio of folded proteins relative to remaining proteins after being maintained at 40° C. for […], relative maximum fluorescence was used. […]"}, "[2]": {"system": "leucine transporter (LeuT)", "experiment": "LeuT stability by [3H]-Leu scintillation proximity assay (SPA)", "format": "biochemical, Aquifex aeolicus", "procedure": "Experiments to measure the structural stability of a leucine transporter (LeuT) protein by TDTs or NDTs were conducted. LeuT protein activity was measured by scintillation proximity assay (SPA) utilizing [^3H]-Leu as a ligand. The concentration of TDTs, NDTs, or DDM was (a) CMC+0.04% by weight, or (b) CMC+[…].\nIn particular, the LeuT stability measurement experiments were conducted according to the following methods. Depending upon the results of UapA and MelB, only TDT-C11, TDT-C12, NDT-C10, NDT-C11 and NDT-C12 among the amphipathic molecules according to the present invention were selectively used. In accordance with a method disclosed in a paper published by G. Deckert, et al. (Nature 1998, 392, 353-358), a wild-type leucine transporter (LeuT) was purified from Aquifex aeolicus. LeuT is expressed in E. coli C41 (DE3) transformed with pET16b encoding a C-terminal 8×His-tagged transporter (the expression plasmid was provided by Dr E. Gouaux, Vollum Institute, Portland, Oreg., USA). In summary, the […] protein was isolated and solubilized with 1.0% by weight of DDM, followed by binding the protein to a Ni^2+-NTA resin (Life Technologies, Denmark) and eluting the same with 20 mM Tris-HCl (pH 8.0), 1 mM NaCl, 199 mM KCl, 0.05% DDM, and 300 mM imidazole. Next, about 1.5 mg/ml of a protein stock was 10-fold diluted with a buffer in which DDM and imidazole are absent, but TDTs, NDTs, or DDM (control) is supplemented such that a final concentration becomes CMC+0.04% by weight or CMC+0.2% by weight. Protein samples were stored at room temperature and centrifuged at a predetermined time. To evaluate protein activity, [^3H]-Leu coupling was measured using scintillation proximity assay (SPA) (M. Quick et al., Proc. Natl, Acad. Sci. U.S.A. 2007, 104, 3603-3608). 5 μL of each protein sample dissolved in a buffer that contained 200 mM NaCl and each test compound was analyzed. SPA reaction was carried out in the presence of 20 nM [^3H]-Leu and copper chelate (His-Tag) YSi beads (both purchased from PerkinElmer, Denmark). [^3H]-Leu coupling was measured by means of a MicroBeta liquid scintillation counter (PerkinElmer)."}},
  "note": "“Also recorded” adds a separate entry of the source.",
  "data": [
    {"smiles": "CCCCCCCCCCCC(CCCCCCCCCCC)COCC(CO[C@@H]1OC(CO)[C@@H](O)C(O)C1O)(CO[C@@H]1OC(CO)[C@@H](O)C(O)C1O)CO[C@@H]1OC(CO)[C@@H](O)C(O)C1O", "note": "(stereo partly shown) [NDT-C11]", "values": [
      {"measurement": "UapA protein structural stability (amount of folded protein)", "setting": "[1]; CMC+0.04% by weight", "value": "most excellent"},
      {"measurement": "UapA protein structural stability (amount of folded protein)", "setting": "[1]; CMC+0.2% by weight", "value": "most excellent; also recorded: superior to those of MNG-3"},
      {"measurement": "LeuT protein stabilization ability ([3H]-Leu binding)", "setting": "[2]; CMC+0.04% by weight, room temperature", "value": "most excellent"},
      {"measurement": "LeuT protein stabilization, overall comparison", "setting": "[2]; conclusion", "value": "superior to DDM and similar to MNG-3"}
    ]}
  ]
}
